# Test results as given in patent publication US6057311A, “Benzodiazonine derivatives binding to cholecystokinin or gastrin receptors” (James Black Foundation Limited, priority 1996, dated 2000).
# What was measured:
# CCKA = biological target: T1, CCKA (Cavia porcellus, UniProt Q63931); test: CCKA binding assay, guinea pig pancreas membranes ([125I]-CCK8(S)); settings: [125I]-CCK8(S) 200 pM, 0.375 μM PD134,308, 150 min at 21±3° C.; for pKi (Guinea pig pancreas): pH 7.2; for Ki: pH 7.2, read-out: pKi (Guinea pig pancreas) (converted)
# T1 construct: The pancreatata were removed from male guinea-pigs; from tissue; host or cells: pancreas of male Dunkin Hartley guinea pigs, membranes
# T1 sequence (Q63931 1-430): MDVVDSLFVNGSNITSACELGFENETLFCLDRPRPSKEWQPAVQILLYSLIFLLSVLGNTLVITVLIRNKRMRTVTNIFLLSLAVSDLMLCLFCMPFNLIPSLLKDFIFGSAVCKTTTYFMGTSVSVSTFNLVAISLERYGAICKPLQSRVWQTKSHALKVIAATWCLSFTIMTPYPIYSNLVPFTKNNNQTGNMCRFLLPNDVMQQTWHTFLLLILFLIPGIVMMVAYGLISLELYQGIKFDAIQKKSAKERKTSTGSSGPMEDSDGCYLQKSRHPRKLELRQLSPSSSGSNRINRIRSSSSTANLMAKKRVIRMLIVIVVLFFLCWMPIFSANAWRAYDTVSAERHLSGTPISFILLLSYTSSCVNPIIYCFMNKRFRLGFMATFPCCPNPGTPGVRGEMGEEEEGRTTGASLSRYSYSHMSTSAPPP
# Procedure: The compounds of the examples were also tested in a CCKA binding assay as follows:
# The pancreatata were removed from male guinea-pigs (200-300 g; Dunkin Hartley) and placed in ice-cold HEPES buffer (pH 7.2@21±3° C.). The pancreatata were homogenised in 40 ml ice-cold HEPES buffer using a polytron (Brinkmann, PT10, setting 10) 4×1 second. The homogenate was centrifuged at 39,800 g for 15 min at 4° C. The supernatant was discarded and the pellet re-suspended using a Teflon-in-glass homogeniser in 20 volumes of fresh buffer and re-centrifuged as above. The final pellet was re-suspended using a Teflon-in-glass homogeniser to a tissue concentration of 1 mg.ml^-1 (original wet weight), and filtered through 500 μm pore-size Nytex mesh.
# The membranes (400 μl; containing 0.375 μM PD134,308) were incubated for 150 minutes at 21±3° C. in a final volume of 0.5 ml with HEPES buffer containing [^125 I]-CCK8 (S) (50 μl; 200 pM) and competing compound. Total and non-specific binding of [^125 I]-CCK8 (S) were defined using 50 μl of buffer and 50 μl of 100 nM L-364,718 respectively. The assay was terminated by rapid filtration through pre-soaked Whatman GF/B filters using a Brandell Cell Harvester. The filters were washed (3×3 ml) with ice-cold 50 mM Tris HCl (pH 7.4 at 4° C.) and bound radioactivity was determined by counting (1 min) in a gamma counter.
# CCKB receptor = biological target: T2, CCKB receptor (Mus musculus, UniProt P56481); test: radioligand binding assay at the CCKB receptor in mouse cortical membranes ([125I]-CCK8S); settings: [125I]-CCK8S 200 pM, 150 min at 21±3° C.; for pKi (Mouse cortex): pH 7.2; for Ki: pH 7.2, read-out: pKi (Mouse cortex) (converted)
# T2 construct: The cortex was dissected, weighed and homogenised in 40 ml ice-cold buffer; tissue Charles River (animals); host or cells: cerebral cortex of male CD1 mice, membranes
# T2 sequence (P56481 1-453): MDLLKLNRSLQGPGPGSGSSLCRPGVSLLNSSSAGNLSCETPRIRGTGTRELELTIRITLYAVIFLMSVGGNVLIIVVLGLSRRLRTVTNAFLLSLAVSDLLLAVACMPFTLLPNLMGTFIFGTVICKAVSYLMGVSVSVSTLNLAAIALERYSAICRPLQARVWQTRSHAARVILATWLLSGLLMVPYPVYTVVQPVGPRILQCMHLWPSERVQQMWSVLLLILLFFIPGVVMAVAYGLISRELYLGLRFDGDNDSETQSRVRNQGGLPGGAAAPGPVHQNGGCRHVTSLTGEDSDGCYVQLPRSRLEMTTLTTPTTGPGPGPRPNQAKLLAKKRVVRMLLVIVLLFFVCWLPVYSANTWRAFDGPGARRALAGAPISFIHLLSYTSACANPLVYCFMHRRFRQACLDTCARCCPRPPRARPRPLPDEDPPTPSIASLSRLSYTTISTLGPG
# Procedure: The compounds of the examples were tested for binding at the CCKB receptor in mouse cortical membranes by means of a radioligand binding assay. The procedure was as follows:
# The whole brains from male mice (CD1 22-25 g; Charles River) were removed and placed in ice-cold buffer (pH7.2@21±3° C.) of the following composition (mM); 10 HEPES, 130 NaCl, 4.7 KCl, 5 MgCl2, 1 EDTA and containing 0.25 g.1^-1 bacitracin. The cortex was dissected, weighed and homogenised in 40 ml ice-cold buffer using a Teflon-in-glass homogeniser. The homogenate was centrifuged at 39,800 g for 20 min at 4° C., the supernatant discarded and the pellet resuspended by homogenisation in fresh buffer. The homogenate was recentrifuged (39,800 g; 20 min @4° C.) and the final pellet was resuspended in HEPES buffer to give a tissue concentration of 2 mg.ml^-1 (original wet weight).
# The membranes (400 μl) were incubated for 150 min at 21±3° C. in a final volume of 0.5 ml with HEPES buffer containing [^125 I]-CCK8S (0.05 ml; 200 pM NEN 2200 Ci.mmol^-1) and competing compound. Total and non-specific binding of [^125 I]-CCK8S were defined using 0.05 ml of buffer and 0.05 ml of […] L-365,260, respectively. The assay was terminated by rapid filtration through pre-soaked Whatman GF/B filters using a Brandell Cell harvester. The filters were washed (3×3 ml) with ice-cold 50 mM Tris-HCl (pH7.4@4° C.) and bound radioactivity determined by counting (1 min.) in a gamma-counter.
SMILES,pKi (Guinea pig pancreas) (CCKA),pKi (Mouse cortex) (CCKB receptor),Ki (CCKA),Ki (CCKB receptor)
"CC(=O)N1[C@H](CC23CC4CC(CC(C4)C2)C3)C(=O)N(Cc2ccccc2)c2ccccc2C(=O)C[C@H]1C(=O)N[C@@H](C)C(=O)O [Example 24, (3R,5S)-4-acetyl-3-(1-adamantyl)methyl-1-benzyl-5-[(1S)-carboxy]ethylaminocarbonyl-2,7-dioxo-2,3,4,5,6,7-hexahydro-1H-1,4-benzodiazonine]",5.0,6.9,–,–
"CC(C)(C)OC(=O)CN1C(=O)CN(C(=O)Nc2ccc(Cl)c(Cl)c2)CCC(=O)c2ccccc21 [Example 2, 1-tert-butyloxycarbonylmethyl-4-(3,4-dichlorophenyl)-carbamyl-2,7-dioxo-2,3,4,5,6,7-hexahydro-1H-1,4-benzodiazonine]",–,–,0.0501 µM,1.26 µM
"CC(C)(C)OC(=O)CN1C(=O)CN(C(=O)OCc2ccccc2)CCC(=O)c2ccccc21 [Example 42, 4-benzyloxycarbonyl-1-tert-butyloxycarbonylmethyl-2,7-dioxo-2,3 4,5,6,7-hexahydro-1H-1,4-benzodiazonine]",–,–,10 µM,20 µM
"CC(=O)N1[C@H](CC23CC4CC(CC(C4)C2)C3)C(=O)N(Cc2ccccc2)c2ccccc2C(=O)C[C@H]1C(=O)NCCC(=O)O [Example 23, (3R,5S)-4-acetyl-3-(1-adamantyl)methyl-1-benzyl-5-(2-carboxy)ethylaminocarbonyl-2,7-dioxo-2,3,4,5,6,7-hexahydro-1H-1,4-benzodiazonine]",–,–,10 µM,1 µM
"CC(=O)N1[C@H](CC23CC4CC(CC(C4)C2)C3)C(=O)N(Cc2ccccc2)c2ccccc2C(=O)C[C@H]1C(=O)NCC(=O)O [Example 22, (3R,5S)-4-acetyl-3-(1-adamantyl)methyl-1-benzyl-5-carboxymethylaminocarbonyl-2,7-dioxo-2,3,4,5,6,7-hexahydro-1H-1,4-benzodiazonine]",–,–,10 µM,0.2 µM
CC(C)(C)OC(=O)CN1C(=O)CN(C(=O)Oc2ccccc2)CCC(=O)c2ccccc21 [Example 43],–,–,10 µM,15.8 µM
"Cc1cccc(NC(=O)N2CCC(=O)c3ccccc3N(Cc3ccccc3)C(=O)C2)c1 [Example 3, 1-benzyl-4-(3-methylphenyl)carbamyl-2,7-dioxo-2,3,4,5,6,7-hexahydro-1H-1,4-benzodiazonine]",–,–,0.316 µM,7.94 µM
"Cc1cccc(NC(=O)N2CCC(=O)c3ccccc3NC(=O)C2)c1 [Example 5, 4-(3-methylphenyl)carbamyl-2,7-dioxo-2,3,4,5,6,7-hexahydro-1H-1,4-benzodiazonine]",–,–,5.01 µM,10 µM
"CC(=O)N1CCC(=O)c2ccccc2N(Cc2ccccc2)C(=O)C1CC12CC3CC(CC(C3)C1)C2 (racemic) [Example 34, (R/S)-4-acetyl-3-(1-adamantyl)methyl-1-benzyl-2,7-dioxo-2,3,4,5,6,7-hexahydro-1H-1,4-benzodiazonine]",–,–,2.51 µM,3.98 µM
"CC(=O)N1[C@H](CC23CC4CC(CC(C4)C2)C3)C(=O)N(Cc2ccccc2F)c2ccccc2C(=O)C[C@H]1C(=O)NCC(=O)O [Example 59, (3R,5S)-4-acetyl-3-(1-adamantyl)methyl-1-(2-fluorobenzyl)-5-carboxymethyaminocarbonyl-2,7-dioxo-2,3,4,5,6,7-hexahydro-1H-1,4-benzodiazonine]",–,–,10 µM,0.1 µM
COc1ccc(CN2C(=O)[C@@H](CC34CC5CC(CC(C5)C3)C4)N(C(C)=O)[C@H](C(=O)Nc3cc(C(=O)O)cc(C(=O)O)c3)CC(=O)c3ccccc32)cc1 [Example 31],–,–,6.31 µM,1.58 µM
"CCC1CCN(C(=O)Nc2ccc(Cl)c(Cl)c2)CC(=O)N(Cc2ccccc2)c2ccccc21 (centres unmarked) [Example 52, 1-benzyl-7-ethyl-4-(3,4-dichlorophenyl)carbamyl-2-oxo-2,3,4,5,6,7-hexahydro-1H-1,4-benzodiazonine]",–,–,0.2 µM,10 µM
"CC(=O)N1[C@H](CC23CC4CC(CC(C4)C2)C3)C(=O)N(Cc2ccccc2)c2ccccc2C(=O)C[C@H]1C(=O)N1CCC[C@H]1C(=O)O (single isomer, unassigned; isomer 2) [Example 28]",4.6,5.4,–,–
"CCOC(=O)CN1C(=O)CN(C(=O)Nc2cccc(C)c2)CCC(=O)c2ccccc21 [Example 4, 1-ethoxycarbonylmethyl-4-(3-methylphenyl)carbamyl-2,7-dioxo-2,3,4,5,6,7-hexahydro-1H-1,4-benzodiazonine]",–,–,3.16 µM,10 µM
O=C(OCc1ccccc1)c1cccc(NC(=O)N2CCC(=O)c3ccccc3N(Cc3ccccc3)C(=O)C2)c1 [Example 46],–,–,3.98 µM,10 µM
"CC(=O)N1[C@H](CC23CC4CC(CC(C4)C2)C3)C(=O)N(Cc2ccccc2F)c2ccccc2C(=O)C[C@H]1C(=O)N[C@@H](C)C(=O)O [Example 64, (3R,5S)-4-acetyl-3-(1-adamantyl)methyl-1-(2-fluorobenzyl)-5-[(1S)-carboxy]ethylaminocarbonyl-2,7-dioxo-2,3,4,5,6,7-hexahydro-1H-1,4-benzodiazonine]",–,–,25.1 µM,0.158 µM
"CC(=O)N1[C@H](CC23CC4CC(CC(C4)C2)C3)C(=O)N(Cc2ccccc2)c2ccccc2C(=O)C[C@H]1C(=O)O [Example 11, (3R,5S) 4-acetyl-3-[(1-adamantyl)methyl]-1-benzyl-2,7-dioxo-2,3,4,5,6,7-hexahydro-1H-1,4-benzodiazonine-5-carboxylate]",–,–,5.01 µM,1 µM
"CC(=O)N1[C@H](CC23CC4CC(CC(C4)C2)C3)C(=O)N(C)c2ccccc2C(=O)C[C@H]1C(=O)O [Example 21, (3R,5S)-4-acetyl-3-(1-adamantyl)methyl-1-methyl-2,7-dioxo-2;3,4,5,6,7-hexahydro-1H-1,4-benzodiazonine-5-carboxylate]",–,–,6.31 µM,7.94 µM
"CC(=O)N1[C@H](CC23CC4CC(CC(C4)C2)C3)C(=O)N(Cc2ccccc2)c2ccccc2C(=O)C[C@H]1C(=O)NCC(=O)NS(C)(=O)=O [Example 41, (3R,5S)-4-acetyl-3-(1-adamantyl)methyl-1-benzyl-5-methanesulphonamidocarboxymethylaminocarbonyl-2,7-dioxo-2,3,4,5,6,7-hexahydro-1H-1,4-benzodiazonine]",–,–,10 µM,0.398 µM
